Reference: EP4782453A1 (Beyang Therapeutics Co., Ltd., priority 2023, dated 2025)

Molecular target: T1, Menin-MLL (Homo sapiens, UniProt O00255)
T1 construct: His-Menin (M1-L615 end); purchased BIORTUS BP9210
T1 sequence (O00255 1-615 isoform O00255-1): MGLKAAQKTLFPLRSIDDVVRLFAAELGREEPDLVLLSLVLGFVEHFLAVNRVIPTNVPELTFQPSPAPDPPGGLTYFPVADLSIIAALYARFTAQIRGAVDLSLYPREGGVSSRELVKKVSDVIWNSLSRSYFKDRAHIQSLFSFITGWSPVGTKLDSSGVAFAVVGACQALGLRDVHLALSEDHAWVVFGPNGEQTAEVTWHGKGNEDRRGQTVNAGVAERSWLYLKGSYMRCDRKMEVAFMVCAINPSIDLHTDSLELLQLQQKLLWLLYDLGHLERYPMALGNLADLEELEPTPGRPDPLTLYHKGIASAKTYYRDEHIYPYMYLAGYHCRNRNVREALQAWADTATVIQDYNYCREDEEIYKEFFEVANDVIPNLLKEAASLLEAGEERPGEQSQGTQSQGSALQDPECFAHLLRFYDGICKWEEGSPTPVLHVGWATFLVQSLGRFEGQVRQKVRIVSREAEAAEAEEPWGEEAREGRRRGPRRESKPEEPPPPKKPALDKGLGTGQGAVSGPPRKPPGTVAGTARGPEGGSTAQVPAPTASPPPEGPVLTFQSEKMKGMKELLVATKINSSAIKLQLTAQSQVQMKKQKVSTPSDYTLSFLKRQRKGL
Experiment: Inhibitory activity against Menin-MLL binding (fluorescence polarization)
Details: Menin-MLL IC50, fluorescence polarization; 150 nM His-Menin, 15 nM FITC-MLL; 25°C for 60 min
Procedure, shortened: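 His-Menin (M1-L615, 150 nM) preincubated with compound 15 min at 25 °C in HEPES pH 7.5, 50 mM NaCl, 1 mM DTT, 0.01% BSA, then 15 nM FITC-MLL4-43 peptide added for 60 min at 25 °C. Fluorescence polarization read; IC50 from 4-parameter logistic fit, duplicates.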

With `CCN(C(=O)c1cc(F)ccc1-c1cc(C2(F)CCN(C[C@]3(O)CC[C@@H](NS(=O)(=O)CC)CC3)C2)cc2c1cnn2C)C(C)C` (stereo partly drawn) [Compound 68, N-ethyl-5-fluoro-2-[6-(3-fluoro-1-{[(1s,4s)-4-ethanesulfonamido-1-hydroxylcyclohexyl]methyl}pyrrolidin-3-yl)-1-methyl-1H-indazol-4-yl]-N-(isopropyl)benzamide] as the molecule, how does the IC50 read?
The IC50 was 298 nM.

How did the IC50 turn out when `CCN(C(=O)c1cc(F)ccc1-c1cc(N2CCN(C(=O)[C@@H]3CCC(C)(C)N3)CC2)cn2c(C)nc(Cl)c12)C(C)C` [Example 111] was run?
Its IC50 is 38 nM.

For `CCN(C(=O)c1cc(F)ccc1-c1cc(C2CN(C(=O)C3NC4CCC3CC4)C2)cn2c(C)nc(Cl)c12)C(C)C` [Example 108, 2-(1-chloro-3-methyl-6-{1-[(1R,3S,4S)-2-azabicyclo[2.2.2]octan-3-carbonyl]azacyclobutan-3-yl}imidazo[1,5-a]pyridin-8-yl)-N-ethyl-5-fluoro-N-(isopropyl)benzamide], which IC50 is on record?
Its IC50 is 7.2 nM.

Which IC50 does the source give for `CCN(C(=O)c1cc(F)ccc1-n1c(=O)n(CC2CN(C(CCCN3CCN(CCO)CC3)C(C)C)C2)c2c(C)cncc21)C(C)C` (stereo not drawn) [Example 415, N-ethyl-5-fluoro-2-{1-[(1-{6-[4-(2-hydroxyethyl)piperazin-1-yl]-2-methylhexan-3-yl}azacyclobutan-3-yl)methyl]-7-methyl-2-oxo-1H,2H,3H-imidazo[4,5-c]pyridin-3-yl} N-(isopropyl)benzamide] here?
The IC50 was 160 nM.

With `CCC(=O)N(c1cc(F)ccc1-c1cc(N2CCN(C(=O)C3NC4CCC3CC4)CC2)cn2c(C)ncc12)C(C)C` [Example 77, N-[5-fluoro-2-(3-methyl-6-{4-[(1R,3S,4S)-2-azabicyclo[2.2.2]octan-3-carbonyl]piperazin-1-yl}imidazo[1,5-a]pyridin-8-yl)phenyl]-N-(isopropyl)propionamide] as the molecule, how does the IC50 read?
Its IC50 is 100 nM.

Same assay, conditions: fluorescence polarization; 150 nM His-Menin, 15 nM FITC-MLL; 25°C for 60 min; read-out: Menin-MLL IC50

For `CCN(C(=O)c1cc(F)ccc1-c1cc(C2CN(C(CCN3CCN(CCO)CC3)C(C)C)C2)cn2c(C)ncc12)C(C)C` (stereo not drawn) [Example 456, N-ethyl-5-fluoro-2-[6-(1-{1-[4-(2-hydroxyethyl)piperazin-1-yl]-4-methylpentan-3-yl}azacyclobutan-3-yl)-3-methylimidazo[1,5-a]pyridin-8-yl]-N-(isopropyl)benzamide], which IC50 is on record?
Its IC50 is 14 nM.

Which IC50 does the source give for `Cc1nc(F)c2c(-c3ccc(F)cc3C(=O)N3CCOC[C@H]3C)cc(C3CN([C@@H](CN4CCN(C(=O)OC(C)(C)C)CC4)C(C)C)C3)cn12` [Example 366-1, 4-[(2R)-2-[3-(1-fluoro-8-{4-fluoro-2-[(3R)-3-methylmorpholin-4-carbonyl]phenyl}-3-methylimidazo[1,5-a]pyridin-6-yl)azacyclobutan-1-yl]-3-methylbutyl]piperazin-1-tert-butyl carboxylate] here?
Its IC50 is 1150 nM.

For `CCS(=O)(=O)N[C@@H]1CC[C@@H](CN2CC(c3cc(-c4ccc(F)cc4C(=O)N(CC(F)F)C(C)C)c4cnn(C)c4c3)C2)OC1` [Example 152, N-(2,2-difluoroethyl)-2-[6-(1-{[(2S,5R)-5-ethanesulfonamidooxacyclohexan-2-yl]methyl}azacyclobutan-3-yl)-1-methyl-1H-indazol-4-yl]-5-fluoro-N-(isopropyl)benzamide], which IC50 is on record?
Its IC50 is 74.5 nM.

For `CCN(C(=O)c1cc(F)ccc1-c1cc(C2CN([C@@H](CC[C@@H]3COCCN3)C(C)C)C2)cn2c(C)ncc12)C(C)C` [Example 449-2, N-ethyl-5-fluoro-2-(3-methyl-6-{1-[(3S)-4-methyl-1-[(3R)-morpholin-3-yl]pentan-3-yl]azacyclobutan-3-yl}imidazo[1,5-a]pyridin-8-yl)-N-(isopropyl)benzamide], which IC50 is on record?
The IC50 was 34 nM.

`CCN(C(=O)c1cc(F)ccc1-c1cc(C2CN([C@H](C)C3CCN(C(=O)CO)CC3)C2)cn2c(C)nc(F)c12)C(C)C` [Example 284-1] was tested. Which IC50 did it give?
The IC50 was 39 nM.

How did the IC50 turn out when `CC(=O)N1CCN(CCC[C@H](C(C)C)N2CC(c3cc(-c4ccc(F)cc4C(=O)N4CCOC[C@H]4C)c4c(F)nc(C)n4c3)C2)[C@H](C)C1` [Example 328] was run?
The IC50 was 16 nM.

Which IC50 does the source give for `Cc1nc(F)c2c(-c3ccc(F)cc3C(=O)N3CCOC[C@H]3C)cc(C3CN(C[C@H]4CC[C@H](c5cnn(C)c5)CC4)C3)cn12` [Example 276-2, (3R)-4-{5-fluoro-2-[1-fluoro-3-methyl-6-(1-{[(1r,4r)-4-(1-methyl-1H-pyrazol-4-yl)cyclohexyl]methyl}azacyclobutan-3-yl)imidazo[1,5-a]pyridin-8yl]benzoyl}-3-methylmorpholine] here?
Its IC50 is 7 nM.

Which IC50 does the source give for `C=C1C[C@@H]2CC[C@H]1[C@@H](C(=O)N1CCC(c3cc(-c4ccc(F)cc4C(=O)N(CC)C(C)C)c4cncn4c3)C1)N2` (stereo partly drawn) [Example 23, N-ethyl-5-fluoro-2-(6-{1-[(1S,3S,4R)-5-methylene-2-azabicyclo[2.2.2]octan-3-carbonyl]pyrrolidin-3-yl}imidazo[1,5-a]pyridin-8-yl)-N-(isopropyl)benzamide] here?
The IC50 was 102 nM.

For `CCS(=O)(=O)N1CCC(CN2CC(c3cc(-c4ccc(F)cc4C(=O)N4CCOC[C@H]4C)c4c(F)nc(C)n4c3)C2)CC1` [Example 251], which IC50 is on record?
Its IC50 is 106 nM.

For `COC[C@H]1CN(CCC[C@@H](C(C)C)N2CC(c3cc(-c4ccc(F)cc4C(=O)N(C(C)C)C(C)C)c4cnc(C)n4c3)C2)CCN1` [Example 504-1, 5-fluoro-2-(6-{1-[(3S)-6-[(3R)-3-(methoxymethyl)piperazin-1-yl]-2-methylhexan-3-yl]azacyclobutan-3-yl}-3-methylimidazo[1,5-a]pyridin-8-yl)-N,N-di(isopropyl)benzamide], which IC50 is on record?
Its IC50 is 17 nM.

`CCN(C(=O)c1cc(F)ccc1-c1cc(C2CCN(C[C@]3(O)CC[C@@H](NC(=O)OC(C)(C)C)CC3)C2)cc2c1cnn2C)C(C)C` (stereo partly drawn) [Compound 54, N-[(1s,4s)-4-{[3-(4-{2-[ethyl(isopropyl)aminoformyl]-4-fluorophenyl}-1-methyl-1H-indazol-6-yl)pyrrolidin-1-yl]methyl}-4-hydroxylcyclohexyl]tert-butyl carbamate] was tested. Which IC50 did it give?
Its IC50 is 105 nM.

With `CC(=O)N1CCN(CCC[C@H](C(C)C)N2CC(c3cc(-c4ccc(F)cc4C(=O)N4CCOC[C@H]4C)c4c(F)nc(C)n4c3)C2)C[C@H]1C` [Example 330, 1-{(2R)-4-[(4R)-4-[3-(1-fluoro-8-{4-fluoro-2-[(3R)-3-methylmorpholin-4-carbonyl]phenyl}-3-methylimidazo[1,5-a]pyridin-6-yl)azacyclobutan-1-yl]-5-methylhexyl]-2-methylpiperazin-1-yl}ethan-1-one] as the molecule, how does the IC50 read?
The IC50 was 16 nM.

For `CCN(C(=O)c1cc(F)ccc1-c1cc(N2CCN(C(=O)[C@@H]3CCCN3)CC2)cn2c(C)nc(Cl)c12)C(C)C` [Example 114], which IC50 is on record?
The IC50 was 19 nM.

For `Cc1nc(F)c2c(-c3ccc(F)cc3C(=O)N3CCOC[C@H]3C)cc(C3CN([C@H](CO[C@@H]4CCN(C)C4)C(C)C)C3)cn12` [Example 298, (3R)-4-[5-fluoro-2-(1-fluoro-3-methyl-6-{1-[(2S)-3-methyl-1-{[(3R)-1-methylpyrrolidin-3-yl]oxy}butan-2-yl]azacyclobutan-3-yl}imidazo[1,5-a]pyridin-8yl)benzoyl]-3-methylmorpholine], which IC50 is on record?
Its IC50 is 14.5 nM.

How did the IC50 turn out when `CCS(=O)(=O)N[C@@H]1CC[C@@H](CN2CC[C@H](c3cc(-c4ccc(F)cc4C(=O)N(CC(F)F)C(C)C)c4cnc(C)n4c3)C2)OC1` [Example 163-2, N-(2,2-difluoroethyl)-2-{6-[(3R)-1-{[(2S,5R)-5-ethanesulfonamidooxacyclohexan-2-yl]methyl}pyrrolidin-3-yl]-3-methylimidazo[1,5-a]pyridin-8-yl}-5-fluoro-N-(isopropyl)benzamide] was run?
Its IC50 is 54 nM.

How did the IC50 turn out when `CC(=O)N1CC2CCC(C1)N2CCC[C@H](C(C)C)N1CC(c2cc(-c3ccc(F)cc3C(=O)N3CCOC[C@H]3C)c3cnc(C)n3c2)C1` [Example 348, 1-{8-[(4R)-4-[3-(8-{4-fluoro-2-[(3R)-3-methylmorpholin-4-carbonyl]phenyl}-3-methylimidazo[1,5-a]pyridin-6-yl)azacyclobutan-1-yl]-5-methylhexyl]-3,8-diazabicyclo[3.2.1]oct-3-yl}ethan-1-one] was run?
Its IC50 is 7.3 nM.

Which IC50 does the source give for `Cc1nc(F)c2c(-c3ccc(F)cc3C(=O)N3CCOC[C@H]3C)cc(C3CN([C@H](C)C4CCOCC4)C3)cn12` [Example 238-1, (3R)-4-[5-fluoro-2-(1-fluoro-3-methyl-6-{1-[(1R)-1-(oxacyclohexan-4-yl)ethyl]azacyclobutan-3-yl}imidazo[1,5-a]pyridin-8-yl)benzoyl]-3-methylmorpholine] here?
The IC50 was 80 nM.

Which IC50 does the source give for `Cc1nc(F)c2c(-c3ccc(F)cc3C(=O)N3[C@H](C)COC[C@H]3C)cc(C3CN(CC4(O)CCOCC4)C3)cn12` [Example 220, 4-{[3-(8-{2-[(3R,5R)-3,5-dimethylmorpholin-4-carbonyl]-4-fluorophenyl}-1-fluoro-3-methylimidazo[1,5-a]pyridin-6-yl)azacyclobutan-1-yl]methyl}oxacyclohexan-4-ol] here?
Its IC50 is 167 nM.

For `COCC1CN(CCC[C@@H](C(C)C)N2CC(c3cc(-c4ccc(F)cc4C(=O)N4CCOC[C@H]4C)c4cnn(C)c4c3)C2)C1` [Example 183-1], which IC50 is on record?
Its IC50 is 507 nM.
